From US20210147343A1 (priority 2018, published 2021) come the findings set out here.

The target of assay [1] is T1, mu opioid receptor (MOR) (Homo sapiens, UniProt P35372). Put plainly: MOR GTPγS agonist assay. In kind it is biochemical. Further details: host or cells: CHO-K1. The source says:
Membranes obtained from the stable cell lines over-expressing MOR were subjected to GTPγS assay using SPA beads (Perkin Elmer, Cat #RPNQ0001).

The target in assay [2] is T1, mu opioid receptor (MOR). Briefly: MOR cAMP antagonist assay. It counts as cell-based. Further details: host or cells: CHO-K1. The source says:
MOR cAMP Antagonist Assay

For assay [3], the target named is T2, kappa opioid receptor (KOR) (Homo sapiens, UniProt P41145).
T2 construct: host or cells: CHO-K1
T2 sequence (P41145 whole entry): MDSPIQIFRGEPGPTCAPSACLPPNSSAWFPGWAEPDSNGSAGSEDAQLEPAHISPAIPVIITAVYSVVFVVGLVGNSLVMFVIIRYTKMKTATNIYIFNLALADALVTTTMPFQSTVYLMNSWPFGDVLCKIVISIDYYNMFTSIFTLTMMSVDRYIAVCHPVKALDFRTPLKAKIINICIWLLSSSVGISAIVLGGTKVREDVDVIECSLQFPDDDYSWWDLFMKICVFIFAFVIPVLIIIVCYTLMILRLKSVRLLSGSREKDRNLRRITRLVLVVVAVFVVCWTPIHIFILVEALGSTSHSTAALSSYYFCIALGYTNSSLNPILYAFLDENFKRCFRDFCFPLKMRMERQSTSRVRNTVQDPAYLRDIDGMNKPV
Briefly: cell-based. The settings on record: kOR cAMP IC50, CHO-K1 cells expressing kOR; after activation with dynorphin B. The source says: KOR cAMP Antagonist Assay

The next assay concerns Male Sprague-Dawley rats. Briefly: Hot plate assay. In kind it is in vivo. Particulars: rat, SC. The method, then: Male Sprague-Dawley rats weighing 275-300 grams were used in the study, n=8-10 per group. Animals are injected SC with 0.9% normal saline solution. At 15, 45, and 80 min after the injection, animals were placed onto a hotplate set to 52 degrees centigrade, and baseline latency is recorded (baseline latency=average time to 2nd withdrawal response consisting of either a lick of a rear paw, shaking a rear paw, backwards walking or jumping). A day later animals were injected SC with test compounds either in vehicle solution, or with a mix of compounds in solution. Next the test latency was recorded (test latency=time to withdrawal on the hotplate measured at 15, 45, 80, 120, 180 and 240 min using the procedure described). Times were then converted to % maximum possible effect (% MPE)=(test_latecy−baseline_latency)/(30 sec-baseline_latency); where 30 sec is the cutoff where the animal is removed if no response ifs observed as it is the time point at which injury is expected to occur.
In general terms: Thermal pain tests record how soon the animal reacts.

Assay [4] has as its target T1, mu opioid receptor (MOR). Put plainly: MOR cAMP agonist assay.
Setting [5] is: membranes of CHO cells over-expressing MOR, SPA beads, read-out: MOR GTPγS EC50.

The structures appear in SMILES notation. Like-named read-outs stand apart in the source and are kept apart here. Bounds are passed on as bounds.

T1 sequence (P35372 whole entry): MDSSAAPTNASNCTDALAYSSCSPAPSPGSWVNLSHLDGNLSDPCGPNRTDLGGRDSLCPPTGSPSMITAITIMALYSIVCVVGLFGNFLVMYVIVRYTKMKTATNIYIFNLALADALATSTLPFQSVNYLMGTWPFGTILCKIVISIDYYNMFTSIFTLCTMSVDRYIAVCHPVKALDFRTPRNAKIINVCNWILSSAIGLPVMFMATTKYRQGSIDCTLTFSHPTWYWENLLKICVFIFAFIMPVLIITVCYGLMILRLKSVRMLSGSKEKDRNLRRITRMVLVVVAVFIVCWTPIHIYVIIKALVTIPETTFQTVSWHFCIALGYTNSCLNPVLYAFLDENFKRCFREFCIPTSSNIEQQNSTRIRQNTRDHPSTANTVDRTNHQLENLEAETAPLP

In the case of `C[C@H](CC(=O)NC[C@H](Cc1ccc2c(c1)CC(=O)N2)N(C)C)c1ccccc1` [Compound A-22, (R)—N—((S)-2-(dimethylamino)-3-(2-oxoindolin-5-yl)propyl)-3-phenylbutanamide], the EC50 – broadly, the concentration that produces a half-maximal response – at mu opioid receptor (MOR) [1] (setting [5]) was less than 100 nM. Besides, at mu opioid receptor (MOR) [2], the IC50 (commonly the concentration that gives 50% inhibition) is less than 100 nM.

In assay [3], `CN(C)[C@H](CNC(=O)[C@@H]1C[C@]1(C)c1ccccc1)Cc1ccc(O)cc1Cl` [Compound B-15, (1R,2S)—N—((S)-3-(2-chloro-4-hydroxyphenyl)-2-(dimethylamino)-propyl)-2-methyl-2-phenylcyclopropane-1-carboxamide] showed an IC50 of more than 1000 nM. The “effect on the analgesic activity of agonist Compound B-56 in the hotplate test” value in the assay on Male Sprague-Dawley rats (co-dosed with Compound B-56, FIG. 1) is “blocks”. In the assay on Male Sprague-Dawley rats (dosed alone, FIG. 1), the “effect on its own in the hotplate test” value is recorded as “no effect”. Also, the EC50 on mu opioid receptor (MOR) [4] is more than 1000 nM.

As to `CN(C)[C@H](CNC(=O)[C@@H]1C[C@]1(C)c1ccccc1)Cc1ccc(O)c(F)c1` [Compound B-30, (1R,2S)—N—((S)-2-(dimethylamino)-3-(3-fluoro-4-hydroxyphenyl)propyl)-2-methyl-2-phenylcyclopropane-1-carboxamide], the IC50 (against mu opioid receptor (MOR) [2]; in assay [3]) was less than 100 nM each time.

As to `CN(C)[C@H](CNC(=O)[C@@H]1C[C@]1(C)c1ccccc1)Cc1ccc(O)cc1F` [Compound B-31, (1R,2S)—N—((S)-2-(dimethylamino)-3-(2-fluoro-4-hydroxyphenyl)propyl)-2-methyl-2-phenylcyclopropane-1-carboxamide], the IC50 (on mu opioid receptor (MOR) [2]; in assay [3]) was less than 100 nM each time. On mu opioid receptor (MOR) [4], this compound showed an EC50 of less than 100 nM.

In the case of `Cc1cc(C[C@@H](CNC(=O)[C@@H]2C[C@]2(C)c2ccccc2)N(C)C)cc(C)c1O` [Compound B-36, (1R,2S)—N—((S)-2-(dimethylamino)-3-(4-hydroxy-3,5-dimethylphenyl)propyl)-2-methyl-2-phenylcyclopropane-1-carboxamide], the IC50 (against mu opioid receptor (MOR) [2]; in assay [3]) was less than 100 nM each time.

Regarding `CCN(CC)[C@H](CNC(=O)[C@@H]1C[C@]1(C)c1ccccc1)Cc1ccc(O)c(C)c1` [Compound B-41, (1R,2S)—N—((S)-2-(diethylamino)-3-(4-hydroxy-3-methylphenyl)propyl)-2-methyl-2-phenylcyclopropane-1-carboxamide], the half-inhibitory concentration (IC50) (against mu opioid receptor (MOR) [2]; in assay [3]) was 100 to 1000 nM in each case. Further, the EC50 at mu opioid receptor (MOR) [4] is less than 100 nM.

Turning to `Cc1cc(C[C@@H](CNC(=O)[C@@H]2C[C@]2(C)c2ccccc2)N(C)C)ccc1O` [Compound B-42, (1R,2S)—N—((S)-2-(dimethylamino)-3-(4-hydroxy-3-methylphenyl)propyl)-2-methyl-2-phenylcyclopropane-1-carboxamide], the values for the IC50 (on mu opioid receptor (MOR) [2]; in assay [3]) were less than 100 nM and 100 to 1000 nM, respectively. On mu opioid receptor (MOR) [4], this compound had an EC50 of less than 100 nM.

At mu opioid receptor (MOR) [2], `Cc1cc(O)cc(C)c1C[C@@H](CNC(=O)[C@@H]1C[C@]1(C)c1ccccc1)N(C)C` [Compound B-47, (1R,2S)—N—((S)-2-(dimethylamino)-3-(4-hydroxy-2,6-dimethylphenyl)-propyl)-2-methyl-2-phenylcyclopropane-1-carboxamide] showed an IC50 of less than 100 nM. In addition, the EC50 at mu opioid receptor (MOR) [4] is less than 100 nM.

Take `Cc1cc(O)ccc1C[C@@H](CNC(=O)[C@@H]1C[C@]1(C)c1ccccc1)N(C)C` [Compound B-48, (1R,2S)—N—((S)-2-(dimethylamino)-3-(4-hydroxy-2-methylphenyl)propyl)-2-methyl-2-phenylcyclopropane-1-carboxamide]: the IC50 (on mu opioid receptor (MOR) [2]; in assay [3]) was less than 100 nM throughout. The EC50 on mu opioid receptor (MOR) [4] was more than 1000 nM.

For `CN(C)[C@H](CNC(=O)[C@@H]1C[C@]1(C)c1ccccc1)Cc1ccc(O)c(Cl)c1` [Compound B-55, (1R,2S)—N—((S)-3-(3-chloro-4-hydroxyphenyl)-2-(dimethylamino)-propyl)-2-methyl-2-phenylcyclopropane-1-carboxamide], the IC50 (at mu opioid receptor (MOR) [2]; in assay [3]) was less than 100 nM each time.

With `CN(C)[C@H](CNC(=O)c1cccc(Cl)c1)Cc1ccc(O)cc1Cl` [Compound C-22], the EC50 on mu opioid receptor (MOR) [1] (setting [5]) was less than 100 nM. The IC50 against mu opioid receptor (MOR) [2] is more than 1000 nM; in assay [3], 100 to 1000 nM.

With `Cc1cc(O)cc(C)c1C[C@@H](CNC(=O)c1ccc(Cl)c(Cl)c1)N(C)C` [Compound C-24, (S)-3,4-dichloro-N-(2-(dimethylamino)-3-(4-hydroxy-2,6-dimethylphenyl)propyl)benzamide], the EC50 at mu opioid receptor (MOR) [1] (setting [5]) is less than 100 nM. Moreover, the IC50 (against mu opioid receptor (MOR) [2]; in assay [3]) was less than 100 nM each time.

Turning to `Cc1cc(O)cc(C)c1C[C@@H](CNC(=O)c1ccc(C(F)(F)F)c(Cl)c1)N(C)C` [Compound C-26], the EC50 on mu opioid receptor (MOR) [1] (setting [5]) was less than 100 nM. Moreover, the concentration for half-maximal inhibition (IC50) against mu opioid receptor (MOR) [2] was less than 100 nM.

As to `Cc1cc(O)cc(C)c1C[C@@H](CNC(=O)c1ccc(Cl)c(C(F)(F)F)c1)N(C)C` [Compound C-27], on mu opioid receptor (MOR) [1] (setting [5]), the EC50 is less than 100 nM. The compound further returned an IC50 against mu opioid receptor (MOR) [2] of less than 100 nM.

As to `Cc1ccc(C(=O)NC[C@H](Cc2c(C)cc(O)cc2C)N(C)C)cc1C` [Compound C-28], the EC50 on mu opioid receptor (MOR) [1] (setting [5]) was less than 100 nM. The same compound yielded an IC50 against mu opioid receptor (MOR) [2] of less than 100 nM.

`Cc1cc(O)cc(C)c1C[C@@H](CNC(=O)c1ccc(C(F)(F)F)c(F)c1)N(C)C` [Compound C-30]: the EC50 on mu opioid receptor (MOR) [1] (setting [5]) was less than 100 nM. Further, the IC50 against mu opioid receptor (MOR) [2] is less than 100 nM.

On to `Cc1cc(O)cc(C)c1C[C@@H](CNC(=O)c1ccc2occc2c1)N(C)C` [Compound C-31], for which the EC50 at mu opioid receptor (MOR) [1] (setting [5]) is less than 100 nM. This compound showed an IC50 at mu opioid receptor (MOR) [2] of less than 100 nM.

With `Cc1cc(O)cc(C)c1C[C@@H](CNC(=O)c1ccc(C(F)(F)F)cc1)N(C)C` [Compound C-32, (S)—N-(2-(dimethylamino)-3-(4-hydroxy-2,6-dimethylphenyl)propyl)-4-(trifluoromethyl)benzamide], the EC50 on mu opioid receptor (MOR) [1] (setting [5]) is less than 100 nM. The compound also showed an IC50 against mu opioid receptor (MOR) [2] of 100 to 1000 nM.

Consider `Cc1cc(O)cc(C)c1C[C@@H](CNC(=O)c1ccc2ccccc2c1)N(C)C` [Compound C-33], for which the EC50 on mu opioid receptor (MOR) [1] (setting [5]) was less than 100 nM. For the same compound, the concentration for half-maximal inhibition (IC50) on mu opioid receptor (MOR) [2] is less than 100 nM.

For the compound `Cc1cc(O)cc(C)c1C[C@@H](CNC(=O)c1nccc2ccccc12)N(C)C` [Compound C-34], the EC50 at mu opioid receptor (MOR) [1] (setting [5]) is less than 100 nM. Also, at mu opioid receptor (MOR) [2], the IC50 was less than 100 nM.

Consider `Cc1cc(O)cc(C)c1C[C@@H](CNC(=O)c1cc2ccccc2cn1)N(C)C` [Compound C-35], for which the EC50 on mu opioid receptor (MOR) [1] (setting [5]) was less than 100 nM. For the same compound, the IC50 on mu opioid receptor (MOR) [2] was less than 100 nM.

Take `CNC(=O)c1ccc(C[C@@H](CNC(=O)c2ccc(Cl)c(Cl)c2)N(C)C)cc1F` [Compound C-39]: on mu opioid receptor (MOR) [1] (setting [5]), the EC50 was less than 100 nM. On mu opioid receptor (MOR) [2], this compound registered an IC50 of less than 100 nM.

For `CNC(=O)c1ccc(C[C@@H](CNC(=O)c2ccc(C)cc2C)N(C)C)cc1F` [Compound C-40], the EC50 at mu opioid receptor (MOR) [1] (setting [5]) was less than 100 nM. For the same compound, the IC50 on mu opioid receptor (MOR) [2] was less than 100 nM; in assay [3] it was more than 1000 nM.

In the case of `CN1Cc2cc(O)ccc2C[C@H]1CNC(=O)c1ccc(Cl)c(Cl)c1` [Compound C-54], the EC50 at mu opioid receptor (MOR) [1] (setting [5]) was less than 100 nM. This compound also returned an IC50 at mu opioid receptor (MOR) [2] of less than 100 nM.

As for `Cc1cc(O)cc(C)c1C[C@@H](CNC(=O)c1cc(Cl)c(Cl)cc1F)N(C)C` [Compound C-57, (S)-4,5-dichloro-N-(2-(dimethylamino)-3-(4-hydroxy-2,6-dimethylphenyl)propyl)-2-fluorobenzamide], on mu opioid receptor (MOR) [1] (setting [5]), the half-maximal effective concentration (EC50) was less than 100 nM. For the same compound, the half-inhibitory concentration (IC50) at mu opioid receptor (MOR) [2] is less than 100 nM.

For the compound `O=C(NC[C@H](Cc1ccc2[nH]ncc2c1)N1CCCC1)c1ccc(Cl)c(Cl)c1` [Compound C-59, (S)—N-(3-(1H-indazol-5-yl)-2-(pyrrolidin-1-yl)propyl)-3,4-dichlorobenzamide], on mu opioid receptor (MOR) [1] (setting [5]), the EC50 is 100 to 1000 nM. Moreover, the IC50 against mu opioid receptor (MOR) [2] is less than 100 nM.

As to `O=C(NC[C@@H]1Cc2ccc(O)cc2CN1)c1ccc(Cl)c(Cl)c1` [Compound C-60, (S)-3,4-dichloro-N-((7-hydroxy-1,2,3,4-tetrahydroisoquinolin-3-yl)methyl)benzamide], the EC50 at mu opioid receptor (MOR) [1] (setting [5]) is less than 100 nM. At mu opioid receptor (MOR) [2], this compound gave an IC50 of less than 100 nM.

With `CN(C)[C@H](CNC(=O)c1ccc(Cl)c(Cl)c1)Cc1ccc(O)c(Cl)c1` [Compound C-61, (S)-3,4-dichloro-N-(3-(3-chloro-4-hydroxyphenyl)-2-(dimethylamino)propyl)benzamide], the EC50 at mu opioid receptor (MOR) [1] (setting [5]) was less than 100 nM. This compound showed an IC50 against mu opioid receptor (MOR) [2] of less than 100 nM.

`CCN(CC)[C@H](CNC(=O)c1ccc(Cl)c(Cl)c1)Cc1ccc2[nH]ncc2c1` [Compound C-64]: the EC50 at mu opioid receptor (MOR) [1] (setting [5]) was less than 100 nM. Besides, the IC50 on mu opioid receptor (MOR) [2] is less than 100 nM.

For the compound `CN(C)[C@H](CNC(=O)c1ccccc1-c1ccccc1)Cc1ccc(O)cc1` [Compound C-66, (S)—N-(2-(dimethylamino)-3-(4-hydroxyphenyl)propyl)-[1,1′-biphenyl]-2-carboxamide], on mu opioid receptor (MOR) [1], the EC50 was more than 1000 nM. Further, the IC50 is more than 1000 nM on mu opioid receptor (MOR) [2] (CHO-K1 cells expressing mOR, after activation with DAMGO at the EC80, read-out: MOR cAMP IC50) and 100 to 1000 nM in assay [3].
